Assay results as given in publication PMC6261043, “Characterization of a heat responsive UDP: Flavonoid glucosyltransferase gene in tea plant (Camellia sinensis)” (PLoS ONE, 2018).

Target: T1, UGT73A17 (rUGT73A17, CsUGT73A17) (Camellia sinensis, UniProt W6JMN6, L296I/A466V, form not given)
T1 construct: gene CsUGTC1; full-length ORF (1422 bp, 473 residues) from tea EST library, N-terminal MBP fusion (pMAL-c2X), E. coli Novablue, purified
Test: HPLC product quantification, Lineweaver-Burk
Format: biochemical
Settings: UDP-glucose as sugar donor, 100 mM Tris-HCl pH 7.0, 30°C

T1 sequence (W6JMN6 entry or part of it L296I/A466V, form open): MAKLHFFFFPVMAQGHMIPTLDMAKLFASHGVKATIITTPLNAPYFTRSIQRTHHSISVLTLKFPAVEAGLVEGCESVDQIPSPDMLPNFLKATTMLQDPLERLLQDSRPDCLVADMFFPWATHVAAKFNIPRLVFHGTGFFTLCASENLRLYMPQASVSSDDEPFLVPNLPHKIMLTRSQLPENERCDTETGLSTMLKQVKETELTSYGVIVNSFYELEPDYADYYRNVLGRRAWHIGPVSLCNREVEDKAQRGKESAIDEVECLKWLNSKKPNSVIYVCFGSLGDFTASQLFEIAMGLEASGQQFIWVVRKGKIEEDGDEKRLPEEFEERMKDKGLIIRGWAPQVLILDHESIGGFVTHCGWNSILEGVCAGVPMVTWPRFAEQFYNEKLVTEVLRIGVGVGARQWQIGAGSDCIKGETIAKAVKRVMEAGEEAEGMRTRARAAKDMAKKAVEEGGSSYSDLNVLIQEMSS

SMILES | Km [µM]
O=c1cc(-c2ccc(O)cc2)oc2cc(O)cc(O)c12 [apigenin] | 5.5 ± 1.5
O=C(O[C@H]1Cc2c(O)cc(O)cc2O[C@H]1c1ccc(O)c(O)c1)c1cc(O)c(O)c(O)c1 [epicatechin gallate] | 77 ± 5.9
O=c1c(O)c(-c2ccc(O)cc2)oc2cc(O)cc(O)c12 [kaempferol] | 5.2
O=c1cc(-c2ccc(O)c(O)c2)oc2cc(O)cc(O)c12 [luteolin] | 3.2
O=c1cc(-c2cc(O)c(O)c(O)c2)oc2cc(O)cc(O)c12 [tricetin] | 4.6 ± 0.71

Other lines, results leading:

Km [µM] | SMILES
8.8 ± 4.3 | O=c1c(O)c(-c2cc(O)c(O)c(O)c2)oc2cc(O)cc(O)c12 [myricetin]
9.5 ± 5 | O=C1C[C@@H](c2ccc(O)cc2)Oc2cc(O)cc(O)c21 [naringenin]
